From ChEMBL document CHEMBL5523716, “Discovery of novel EGFR-PROTACs capable of degradation of multiple EGFR-mutated proteins” (Eur J Med Chem, 2024)

Experiments:
HCC827 [1] = assay: Antiproliferative activity against human HCC827 cells harboring EGFR Del19 mutant assessed as inhibition of cell growth incubated for 48 to 72 hrs by CCK-8 assay; format: functional, cell-based
NCI-H1975 [2] = assay: Antiproliferative activity against human NCI-H1975 cells harboring EGFR L858R/T790M double mutant assessed as inhibition of cell growth incubated for 48 to 72 hrs by CCK-8 assay; format: functional, cell-based
[3] = Antiproliferative activity against human H1975-TM cells harboring EGFR L858R/T790M/C797S mutant assessed as inhibition of cell growth incubated for 48 to 72 hrs by CCK-8 assay; format: functional, cell-based
A-431 = assay: Antiproliferative activity against human A-431 cells harboring EGFR wild type assessed as inhibition of cell growth incubated for 48 to 72 hrs by CCK-8 assay; format: functional, cell-based
A549 = assay: Antiproliferative activity against human A549 cells harboring EGFR wild type assessed as inhibition of cell growth incubated for 48 to 72 hrs by CCK-8 assay; format: functional, cell-based
HCC827 [4] = assay: Antitumor activity against human HCC827 cells xenografted in BALB/c mouse assessed as tumor growth inhibition at 5 mg/kg,ip once daily for 28 days relative to control; format: functional; conditions: HCC827, 672 h, time 28 day, read-out: TGI
NCI-H1975 [5] = assay: Antitumor activity against human NCI-H1975 cells xenografted in BALB/c mouse assessed as tumor growth inhibition at 10 mg/kg,ip once daily for 22 days relative to control; format: functional; conditions: NCI-H1975, 528 h, time 22 day, read-out: TGI
[6] = Antitumor activity against human H1975-TM cells xenografted in BALB/c mouse assessed as tumor growth inhibition at 10 mg/kg,ip once daily for 14 days relative to control; format: functional; conditions: 336 h, time 14 day, read-out: TGI

| SMILES | IC50 (HCC827 [1]) | IC50 (NCI-H1975 [2]) | IC50 [3] | IC50 (A-431) | IC50 (A549) | inhibition in vivo at 5 mg/kg (HCC827 [4]) | inhibition in vivo at 10 mg/kg (NCI-H1975 [5]) | inhibition in vivo at 10 mg/kg [6] |
| --- | --- | --- | --- | --- | --- | --- | --- | --- |
| Cc1ncsc1-c1ccc(CNC(=O)[C@@H]2C[C@@H](O)CN2C(=O)[C@@H](NC(=O)CCCCCCCCCCn2cc(COCCOCCOCCOc3cc4ncnc(Nc5ccc(F)c(Cl)c5)c4cc3NC(=O)/C=C/CN3CCCCC3)nn2)C(C)(C)C)cc1 | 0.015 µM | 2.36 µM | > 20 µM | 11.5 µM | > 20 µM | – | – | – |
| Cc1ncsc1-c1ccc(CNC(=O)[C@@H]2C[C@@H](O)CN2C(=O)[C@@H](NC(=O)CCCCn2cc(CCCCCOc3cc4ncnc(Nc5ccc(F)c(Cl)c5)c4cc3NC(=O)/C=C/CN3CCCCC3)nn2)C(C)(C)C)cc1 | 0.046 µM | 14.7 µM | > 20 µM | > 20 µM | > 20 µM | – | – | – |
| CCN(CC)C/C=C/C(=O)Nc1cc2c(Nc3ccc(F)c(Cl)c3)ncnc2cc1OCc1cn(CCCCC(=O)N[C@H](C(=O)N2C[C@H](O)C[C@H]2C(=O)N[C@H](C)c2ccc(-c3scnc3C)cc2)C(C)(C)C)nn1 | 0.039 µM | 7.46 µM | > 20 µM | > 20 µM | > 20 µM | – | – | – |
| CCN(CC)C/C=C/C(=O)Nc1cc2c(Nc3ccc(F)c(Cl)c3)ncnc2cc1OCCCCCc1cn(CCCCCCCC(=O)N[C@H](C(=O)N2C[C@H](O)C[C@H]2C(=O)N[C@H](C)c2ccc(-c3scnc3C)cc2)C(C)(C)C)nn1 | 0.03 µM | 0.96 µM | > 20 µM | > 20 µM | > 20 µM | – | – | – |
| CCN(CC)C/C=C/C(=O)Nc1cc2c(Nc3ccc(F)c(Cl)c3)ncnc2cc1OCCCCCc1cn(CCCCC(=O)N[C@H](C(=O)N2C[C@H](O)C[C@H]2C(=O)N[C@H](C)c2ccc(-c3scnc3C)cc2)C(C)(C)C)nn1 | 0.054 µM | 1.86 µM | > 20 µM | > 20 µM | > 20 µM | – | – | – |
| Cc1ncsc1-c1ccc(CNC(=O)[C@@H]2C[C@@H](O)CN2C(=O)[C@@H](NC(=O)CCCCCCCCCCn2cc(CCCCCOc3cc4ncnc(Nc5ccc(F)c(Cl)c5)c4cc3NC(=O)/C=C/CN3CCCCC3)nn2)C(C)(C)C)cc1 | 0.027 µM | > 20 µM | > 20 µM | > 20 µM | > 20 µM | – | – | – |
| Cc1ncsc1-c1ccc(CNC(=O)[C@@H]2C[C@@H](O)CN2C(=O)[C@@H](NC(=O)CCCCCCCn2cc(CCCCCOc3cc4ncnc(Nc5ccc(F)c(Cl)c5)c4cc3NC(=O)/C=C/CN3CCCCC3)nn2)C(C)(C)C)cc1 | 0.053 µM | 5.82 µM | > 20 µM | > 20 µM | > 20 µM | – | – | – |
| Cc1ncsc1-c1ccc(CNC(=O)[C@@H]2C[C@@H](O)CN2C(=O)[C@@H](NC(=O)CCCCCCCCCn2cc(CCCCCOc3cc4ncnc(Nc5ccc(F)c(Cl)c5)c4cc3NC(=O)/C=C/CN3CCCCC3)nn2)C(C)(C)C)cc1 | 0.018 µM | 9.44 µM | > 20 µM | > 20 µM | 9.3 µM | – | – | – |
| Cc1ncsc1-c1ccc(CNC(=O)[C@@H]2C[C@@H](O)CN2C(=O)[C@@H](NC(=O)CCCCCCCCCCn2cc(COc3cc4ncnc(Nc5ccc(F)c(Cl)c5)c4cc3NC(=O)/C=C/CN3CCCCC3)nn2)C(C)(C)C)cc1 | 0.006 µM | > 20 µM | > 20 µM | > 20 µM | > 20 µM | – | – | – |
| CCN(CC)C/C=C/C(=O)Nc1cc2c(Nc3ccc(F)c(Cl)c3)ncnc2cc1OCCCCCc1cn(CCCCCCCCCCC(=O)N[C@H](C(=O)N2C[C@H](O)C[C@H]2C(=O)NCc2ccc(-c3scnc3C)cc2)C(C)(C)C)nn1 | 0.01 µM | 3.08 µM | > 20 µM | > 20 µM | > 20 µM | – | – | – |
| Cc1ncsc1-c1ccc(CNC(=O)[C@@H]2C[C@@H](O)CN2C(=O)[C@@H](NC(=O)COCCOCCn2cc(CCCCCOc3cc4ncnc(Nc5ccc(F)c(Cl)c5)c4cc3NC(=O)/C=C/CN3CCCCC3)nn2)C(C)(C)C)cc1 | 0.004 µM | 1.93 µM | > 20 µM | > 20 µM | > 20 µM | – | – | – |
| CCN(CC)C/C=C/C(=O)Nc1cc2c(Nc3ccc(F)c(Cl)c3)ncnc2cc1OCCCCCc1cn(CCOCCOCC(=O)N[C@H](C(=O)N2C[C@H](O)C[C@H]2C(=O)NCc2ccc(-c3scnc3C)cc2)C(C)(C)C)nn1 | 0.084 µM | 2.85 µM | > 20 µM | > 20 µM | > 20 µM | – | – | – |
| Cc1ncsc1-c1ccc(CNC(=O)[C@@H]2C[C@@H](O)CN2C(=O)[C@@H](NC(=O)COCCn2cc(CCCCCOc3cc4ncnc(Nc5ccc(F)c(Cl)c5)c4cc3NC(=O)/C=C/CN3CCCCC3)nn2)C(C)(C)C)cc1 | 0.169 µM | 14.3 µM | > 20 µM | > 20 µM | > 20 µM | – | – | – |
| CCN(CC)C/C=C/C(=O)Nc1cc2c(Nc3ccc(F)c(Cl)c3)ncnc2cc1OCCCCCc1cn(CCCCCCCC(=O)N[C@H](C(=O)N2C[C@H](O)C[C@H]2C(=O)NCc2ccc(-c3scnc3C)cc2)C(C)(C)C)nn1 | 0.031 µM | 1.37 µM | > 20 µM | > 20 µM | > 20 µM | – | – | – |
| COc1cc2ncnc(Nc3ccc(F)c(Cl)c3)c2cc1NC(=O)/C=C/CN1CCCCC1 [DACOMITINIB ANHYDROUS] | 0.007 µM | 0.7 µM | 7.01 µM | 1.96 µM | 0.49 µM | 90% | 67% | – |
| Cc1ncsc1-c1ccc(CNC(=O)[C@@H]2C[C@@H](O)CN2C(=O)[C@@H](NC(=O)CCCCCCCCCCn2cc(COc3cc4ncnc(Nc5ccc(F)c(Cl)c5)c4cc3NC(=O)/C=C/CN3CCOCC3)nn2)C(C)(C)C)cc1 | 0.019 µM | > 20 µM | > 20 µM | > 20 µM | > 20 µM | – | – | – |
| Cc1ncsc1-c1ccc(CNC(=O)[C@@H]2C[C@@H](O)CN2C(=O)[C@@H](NC(=O)CCCCCCCCCCn2cc(COc3cc4ncnc(Nc5ccc(F)c(Cl)c5)c4cc3NC(=O)/C=C/CN(C)C)nn2)C(C)(C)C)cc1 | 0.011 µM | 1.48 µM | > 20 µM | > 20 µM | > 20 µM | – | – | – |
| Cc1ncsc1-c1ccc(CNC(=O)[C@@H]2C[C@@H](O)CN2C(=O)[C@@H](NC(=O)CCCCCCCn2cc(COCCOCCOCCOc3cc4ncnc(Nc5ccc(F)c(Cl)c5)c4cc3NC(=O)/C=C/CN3CCCCC3)nn2)C(C)(C)C)cc1 | 0.043 µM | 2.55 µM | > 20 µM | 11.4 µM | > 20 µM | – | – | – |
| CCN(CC)C/C=C/C(=O)Nc1cc2c(Nc3ccc(F)c(Cl)c3)ncnc2cc1OCCCCCc1cn(CCCCCCCCCCC(=O)N[C@H](C(=O)N2C[C@H](O)C[C@H]2C(=O)N[C@H](C)c2ccc(-c3scnc3C)cc2)C(C)(C)C)nn1 | 0.01 µM | 5.37 µM | > 20 µM | > 20 µM | > 20 µM | – | – | – |
| C=CC(=O)Nc1cc(Nc2nccc(-c3cn(C)c4ccccc34)n2)c(OC)cc1N(C)CCN(C)C [OSIMERTINIB] | 0.006 µM | […] | 6.7 µM | […] | 1.23 µM | – | – | 27% |
| Cc1ncsc1-c1ccc(CNC(=O)[C@@H]2C[C@@H](O)CN2C(=O)[C@@H](NC(=O)CCCCn2cc(COCCOCCOCCOc3cc4ncnc(Nc5ccc(F)c(Cl)c5)c4cc3NC(=O)/C=C/CN3CCCCC3)nn2)C(C)(C)C)cc1 | 0.05 µM | 4.96 µM | > 20 µM | > 20 µM | > 20 µM | – | – | – |
| CCN(CC)C/C=C/C(=O)Nc1cc2c(Nc3ccc(F)c(Cl)c3)ncnc2cc1OCCCCCc1cn(CCCCC(=O)N[C@H](C(=O)N2C[C@H](O)C[C@H]2C(=O)NCc2ccc(-c3scnc3C)cc2)C(C)(C)C)nn1 | 0.059 µM | 3.5 µM | > 20 µM | > 20 µM | > 20 µM | – | – | – |
| Cc1ncsc1-c1ccc(CNC(=O)[C@@H]2C[C@@H](O)CN2C(=O)[C@@H](NC(=O)COCCOCCOCCn2cc(CCCCCOc3cc4ncnc(Nc5ccc(F)c(Cl)c5)c4cc3NC(=O)/C=C/CN3CCCCC3)nn2)C(C)(C)C)cc1 | 0.089 µM | 2.28 µM | > 20 µM | > 20 µM | > 20 µM | – | – | – |
| Cc1ncsc1-c1ccc(CNC(=O)[C@@H]2C[C@@H](O)CN2C(=O)[C@@H](NC(=O)CCCCCCCCCCn2cc(COc3cc4ncnc(Nc5ccc(F)c(Cl)c5)c4cc3NC(=O)/C=C/CN3CCN(C)CC3)nn2)C(C)(C)C)cc1 | 0.038 µM | 14.2 µM | > 20 µM | > 20 µM | > 20 µM | – | – | – |
| CCN(CC)C/C=C/C(=O)Nc1cc2c(Nc3ccc(F)c(Cl)c3)ncnc2cc1OCc1cn(CCCCCCCCCCC(=O)N[C@H](C(=O)N2C[C@H](O)C[C@H]2C(=O)N[C@H](C)c2ccc(-c3scnc3C)cc2)C(C)(C)C)nn1 | 0.01 µM | 0.69 µM | > 20 µM | > 20 µM | > 20 µM | – | – | – |
